{"source": "patent US7456223B2", "about": "“Treatment of bruxism” (priority 2004, dated 2008)", "key": {"skeletal muscle spasm": {"test_system": "skeletal muscle spasm", "settings": "after application", "text": "Cyclobenzaprine is a 5-HT2 receptor antagonist and its muscle relaxant effect is due to inhibition of serotonergic neurons."}, "[1]": {"settings": "taken orally; cited from earlier work"}, "[2]": {"settings": "taken orally; cited from earlier work", "remark": "listed apart in the source"}}}
{"compound": "CN(C)CCC=C1c2ccccc2C=Cc2ccccc21", "note": "[cyclobenzaprine]", "values": [{"measurement": "time to clinical improvement (local pain and tenderness, range of motion)", "setting": "skeletal muscle spasm", "value": "≤ 20", "unit": "min"}, {"measurement": "half life", "setting": "[1]", "value": "one to three"}, {"measurement": "binding to plasma proteins", "setting": "[2]", "value": "highly bound to plasma proteins"}]}
